Test results: patent US12083084B2, “Method for enhancing energy production and metabolism in cells” (REPLICON HEALTH OY, priority 2013, dated 2024)

Tests used:
[1] = Blood pressure (hypertension) in study subjects; assay type: in vivo, human
Method: FIG. 12 depicts that hypertension was measured in two study subjects out of eight (subject 4 and 5). Subject 5 was the only person with clearly elevated blood pressure. (For other study subjects 1-3 and 6-8 blood pressures were at normal level.) Subject 5 blood pressure was first observed without any treatment for 6 days (from 20 of Jan. to 26 of Jan. 2013). After that subject 5 received twice a day 4 mg/kg of DGA mixed to water for 10 days. […] Subject 4 received 1×4 mg/k/day of DGA for 3 weeks.
FIG. 12a: Hypertension, subject 5 (averages of three measurements. DGA dosing started on 26th of January and ended on 3rd of February. Dose 2×4 mg/kg/day).
FIG. 12b: Hypertension, subject 4 (averages of three measurements. Subject 4 received 1×4 mg/kg/day of DGA for 3 weeks).

[2] = 400 m running experiment; assay type: in vivo, human
Method: Two healthy male volunteers S1 and S3 from Example 2.1 participated in 400 m running experiment with 4 day administration of DGAcs and without it. The experiments were done at 2-3 pm in the afternoon. In DGA experiment additional dose of DGAcs (5 mg/kg) was taken before lunch at 11 am, and lunch was eaten at 12 am. […] The length of the 400 m exercise at full speed was too much especially for S1. […] This difference was striking especially for S3 and can be as a result in decreased acidosis.

[3] = system: Mitochondria of Primary Rat Cortical Neurons; assay: Mitochondrial Ca2+-uptake in rat cortical neurons (fluorescent imaging); assay type: cell-based; conditions: 50 ug/ml for 24 h, N = 3
Method: Fluorescent imaging. Imaging experiments were performed at 7 DIV. The cells were loaded with fluorescent dyes (fura4F, fura-ff and rhodamine 123) in cell culture medium at 37° C. 1 h, 5 μM for each dye. Then cells were washed with Mg^2+-free Locke's buffer containing 1.3 mM Ca^2+, moved to the microscope stage, and imaging was performed at room temperature. […] For delayed calcium deregulation experiments a lower affinity Ca^2+-indicator FuraFF (Kd 5.5 μM) was used to avoid a saturation of the signal.
In this study a zero control and one DGAcs group of primary rat cortical neurons was cultivated normally without DGAcs until 6 DIV, and then the DGAcs group was treated with 50 μg/ml DGAcs for 24 hours. After that culture medium was replaced by Mg^2+-free Locke's buffer containing 50 μg/ml DGAcs and imaging experiments were performed at room temperature at 7 DIV.
50 μM NMDA in the presence of 10 μM glycin in Mg^2+-free buffer was used to stimulate the cells.
For complete mitochondrial depolarization and release of Ca^2+ accumulated in mitochondria 2 μM protonophore FCCP was used in the presence of NMDA-receptors inhibitor MK801 (2 μM).

[4] = system: human primary hepatocytes; assay: NAD+/NADH quantification in human hepatocytes; assay type: cell-based; set-up: NADtot / NADH / NAD+ / NAD+/NADH: unit not given here; conditions: 48 h + 3 h
From the text: For the measurement of total NAD (NADtot=NADH+NAD^+) and NAD^+/NADH ratio, a NAD^+/NADH Quantification kit (MAK037) from Sigma was used. NAD functions as an electron carrier, fluctuating between the oxidized (NAD^+) and reduced (NADH) forms. In addition, NAD^+ plays critical roles in ADP-ribosylation reaction and as a substrate for sirtuins. According to the Sigma instruction, the NAD^+/NADH Quantification kit (Sigma) provides a convenient tool for sensitive detection of NAD, NADH and their ratio without requirement to purify them from samples. Important to notice is that the kit measures NADH and NAD^+ in whole cell including all cell organelles and compartments. Mitochondrial matrix is clearly dominant NADH producer from TCA and beta oxidation (consuming naturally the same amount of NAD^+ in redox reactions). Importantly, formed NADH is also typically oxidized into NAD^+ in the matrix by Complex I in ETC. As is well known anaerobic carbohydrate metabolism, i.e. glycolysis, in cytosol also consumes NAD^+ and produces NADH.
Cell culture in NADH-tests was like in Example 1.1. The change of the medium with DGAcs was conducted at 0 h, 24 h and 48 h. NAD measurements were made at 48+3 h in all cases. For CDP also HPA was tested, and for DOO no new nutrition at 48 h was added, i.e. test was conducted in fasting conditions.

[5] = rats, given with ethanol; cited from earlier work
[6] = donor alpha, new nutrition at 48 h, N = 5, 1.4 (μM)
[7] = donor alpha, new nutrition at 48 h, N = 5, 14 (μM)
[8] = donor one, new nutrition at 48 h, N = 5, 1.4 (μM)
[9] = donor one, new nutrition at 48 h, N = 5, 14 (μM)
[10] = donor three, no new nutrition at 48 h (fasting), N = 3, 1.4 (μM)
[11] = donor three, no new nutrition at 48 h (fasting), N = 3, 14 (μM)

In the case of `O=C(O)[C@H](O)CO` [DGA, D-glyceric acid], the blood pressure ([1]; subject 4, 1×4 mg/kg/day for 3 weeks) is reported as “declined also somewhat”, the “diastolic blood pressure after treatment” value ([1]; subject 5, clearly elevated blood pressure (102 or 104 before), twice a day for 10 days) is reported as ~90 and the “systolic blood pressure after treatment” value ([1]; subject 5, clearly elevated blood pressure (roughly 180 before), twice a day for 10 days) is reported as ~160. For the same compound, the “readiness to resume other physical exercise after 400 m run” value ([2]; S1 and S3, qualitative) was “much more ready to resume other physical exercise” and the “400 m running times, control vs DGA” value ([2]; S3, 4 day administration + 5 mg/kg before lunch) was “no significant differences”.

For `O.O.O=C([O-])[C@H](O)CO.O=C([O-])[C@H](O)CO.[Ca+2]` [DGAcs, D-glyceric acid, calcium salt dehydrate], the “Average Ca release, FCCP” value ([3]; 2 μM FCCP + MK801 (complete mitochondrial depolarization)) was 0.475 *), the “Average Ca release, peak NMDA” value ([3]; 50 μM NMDA) was 0.219 and the “Average Ca release, baseline Ca” value [3] was 0.070. For the same compound, the “Change in NAD+/NADH vs. Control” value [4, 6] was −53%, the “NAD+” value [4, 6] was 0.009 and the “NAD+/NADH” value [4, 6] was 0.040. The NADH [4, 6] was 0.222, the NADtot [4, 6] was 0.231 and the “Change in NAD+/NADH vs. Control” value [4, 7] was −62%. For the same compound, the “NAD+” value [4, 7] was 0.007, the “NAD+/NADH” value [4, 7] was 0.032 and the NADH [4, 7] was 0.225. For the same compound, the NADtot [4, 7] was 0.232, the “Change in NAD+/NADH vs. Control” value [4, 8] was −39.3% and the “NAD+” value [4, 8] was 0.040. The “NAD+/NADH” value [4, 8] was 0.139, the NADH [4, 8] was 0.289 and the NADtot [4, 8] was 0.329. For the same compound, the “Change in NAD+/NADH vs. Control” value [4, 9] was −87.2%, the “NAD+” value [4, 9] was 0.009 and the “NAD+/NADH” value [4, 9] was 0.029. For the same compound, the NADH [4, 9] was 0.294, the NADtot [4, 9] was 0.302 and the “Change in NAD+/NADH vs. Control” value [4, 10] was −64.6%. The “NAD+” value [4, 10] was 0.004, the “NAD+/NADH” value [4, 10] was 0.017 and the NADH [4, 10] was 0.239. For the same compound, the NADtot [4, 10] was 0.243, the “Change in NAD+/NADH vs. Control” value [4, 11] was −24.0% and the “NAD+” value [4, 11] was 0.009. The “NAD+/NADH” value [4, 11] was 0.037, the NADH [4, 11] was 0.232 and the NADtot [4, 11] was 0.240. The metabolism of alcohol [5] was “expedited the metabolism of alcohol”.
